This is an account of results in US12410160B2 (Gilead Sciences, Inc., priority 2021, dated 2025).

Where only a bound is given, the exact number is not on record here.

A word on the IC50: it is the midpoint of a concentration-inhibition curve. Low values mean inhibition by little substance, high ones a need for much substance. Broadly, the EC50 is the concentration needed to bring the measured effect to its halfway point. A higher EC50 goes with lower potency in that assay.

Assay [1] has as its target human KHK-A (Homo sapiens (Human), UniProt P50053). The assay is described as follows: KHK Biochemical Assay (IC50), ADP-Glo, KHK-A. The note with it: average of at least two separate assays. A digest of the protocol:
(§1)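 ADP-Glo luminescence measured ADP made over a 4 h room-temperature reaction of ATP plus fructose, started after 30 min compound–enzyme pre-incubation. Buffer: 50 mM Hepes pH 7.4, 140 mM KCl, 5 mM MgCl2, 0.01% Triton-X. Enzyme was His-tagged, BL21 (DE3)-expressed, Ni-NTA-purified; compounds in 1:3 DMSO dilution series.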
A general note: ADP-Glo first removes unused ATP, then detects ADP through luciferase.

In assay [2] the target is KHK-C expressed in NRK-52E cells (Homo sapiens (Human), UniProt P50053). As to the kind of experiment: KHK-C Cell-based Assay (EC50), NRK CTG, fructose-mediated ATP-depletion.
The target of assay [3] is human KHK-C (Homo sapiens (Human), UniProt P50053). The assay is described as follows: KHK Biochemical Assay (IC50), ADP-Glo, KHK-C. The conditions noted are these: average of at least two separate assays. The method, boiled down:
as §1

Sequence of KHK-C expressed in NRK-52E cells (P50053 whole entry): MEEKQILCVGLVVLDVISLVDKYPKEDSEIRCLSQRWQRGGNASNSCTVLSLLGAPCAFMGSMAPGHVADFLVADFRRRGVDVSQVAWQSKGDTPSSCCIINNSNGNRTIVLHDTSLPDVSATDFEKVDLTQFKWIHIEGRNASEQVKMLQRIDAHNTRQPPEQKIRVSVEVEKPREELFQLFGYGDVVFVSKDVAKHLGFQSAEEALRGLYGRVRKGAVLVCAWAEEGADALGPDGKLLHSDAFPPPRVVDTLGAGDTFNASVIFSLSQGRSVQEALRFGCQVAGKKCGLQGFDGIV
Sequence of human KHK-C (P50053 whole entry): as above
Sequence of human KHK-A (P50053 other isoform, or with tags, fused parts or gaps): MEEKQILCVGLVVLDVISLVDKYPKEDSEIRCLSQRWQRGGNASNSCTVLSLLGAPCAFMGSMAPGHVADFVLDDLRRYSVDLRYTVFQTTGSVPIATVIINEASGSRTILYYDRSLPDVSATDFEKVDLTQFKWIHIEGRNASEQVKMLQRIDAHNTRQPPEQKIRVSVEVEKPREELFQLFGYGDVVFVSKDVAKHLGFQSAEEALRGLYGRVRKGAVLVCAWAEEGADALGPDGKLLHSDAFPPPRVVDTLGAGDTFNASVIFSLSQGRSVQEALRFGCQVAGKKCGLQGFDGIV

As to `C[C@H]1[C@H](O)CN1c1nc2c(c(-c3ccc4cnc(O)cc4c3)n1)CCC2` [Example 388, 6-[2-[(2S,3R)-3-hydroxy-2-methyl-azetidin-1-yl]-6,7-dihydro-5H-cyclopenta[d]pyrimidin-4-yl]isoquinolin-3-ol], the IC50 in assay [1] (ADP-Glo) was 87.7 nM; in assay [3] (ADP-Glo) it was 81.3 nM. The EC50 in assay [2] worked out at 403 nM.

Turning to `C[C@H]1CCN1c1nc2c(c(-c3nc4cc(F)ccc4n3C)n1)CCC2` [Example 390, 5-fluoro-1-methyl-2-[2-[(2S)-2-methylazetidin-1-yl]-6,7-dihydro-5H-cyclopenta[d]pyrimidin-4-yl]benzimidazole], the IC50 is 4220 nM in assay [1] (ADP-Glo) and 2480 nM in assay [3] (ADP-Glo). The compound further returned a 50% effective concentration (EC50) in assay [2] of 3330 nM.

`C[C@H]1CCN1c1nc2c(c(-c3nc4ccccc4n3C)n1)CCC2` [Example 391, 1-methyl-2-[2-[(2S)-2-methylazetidin-1-yl]-6,7-dihydro-5H-cyclopenta[d]pyrimidin-4-yl]benzimidazole]: the IC50 in assay [1] (ADP-Glo) was 2190 nM; in assay [3] (ADP-Glo) it was 915 nM. For the same compound, in assay [2], the response was half-maximal at 1810 nM (EC50).

As for `C[C@H]1CCN1c1nc(-c2ccc(C(N)=O)cc2)c2[nH]ncc2n1` [Example 396, (S)-4-(5-(2-methylazetidin-1-yl)-1H-pyrazolo[4,3-d]pyrimidin-7-yl)benzamide], the IC50 is 130 nM in assay [1] and 80 nM in assay [3]. For the same compound, a half-maximal effect in assay [2] (EC50) was put at 2510 nM.

On to `C[C@H]1CCN1c1nc2c(c(-c3ccc4c(c3)[C@]3(C[C@H]3c3nc[nH]n3)C(=O)N4)n1)CCC2` [Example 414, (1R,2R)-5′-(2-((S)-2-methylazetidin-1-yl)-6,7-dihydro-5H-cyclopenta[d]pyrimidin-4-yl)-2-(1H-1,2,4-triazol-3-yl)spiro[cyclopropane-1,3′-indolin]-2′-one], for which the IC50 in assay [1] is 397 nM; in assay [3], 138 nM. The EC50 in assay [2] was > 5000 nM.

With `C[C@H]1CCN1c1nc2c(c(-c3cc(C(N)=O)c4ccccc4c3)n1)CCC2` [Example 423, (S)-3-(2-(2-methylazetidin-1-yl)-6,7-dihydro-5H-cyclopenta[d]pyrimidin-4-yl)-1-naphthamide], the IC50 amounted to 66.1 nM in assay [1] and 81.4 nM in assay [3]. Moreover, in assay [2], a half-maximal response (EC50) required 239 nM.

In the case of `C[C@H]1CCN1c1nc2c(c(-c3ccc4c(c3)C(=O)NC(=O)C4)n1)CCC2` [Example 424, (S)-7-(2-(2-methylazetidin-1-yl)-6,7-dihydro-5H-cyclopenta[d]pyrimidin-4-yl)isoquinoline-1,3(2H,4H)-dione], the IC50 stood at 169 nM in assay [1] and 136 nM in assay [3]. In assay [2], this compound showed an EC50 of 3510 nM.

Consider `C[C@H]1CCN1c1nc2c(c(-c3ccc4[nH]c(=O)[nH]c(=O)c4c3)n1)CCC2` [Example 425, 6-[2-[(2S)-2-methylazetidin-1-yl]-6,7-dihydro-5H-cyclopenta[d]pyrimidin-4-yl]-1H-quinazoline-2,4-dione], for which the half-maximal inhibitory concentration (IC50) in assay [1] stood at 21.7 nM; in assay [3] it was 31.4 nM. Moreover, in assay [2], the midpoint of the response, the EC50, lay at 122 nM.

Take `C[C@H]1CCN1c1nc2c(c(-c3ccc4c(=O)[nH]c(=O)[nH]c4c3)n1)CCC2` [Example 426, 7-[2-[(2S)-2-methylazetidin-1-yl]-6,7-dihydro-5H-cyclopenta[d]pyrimidin-4-yl]-1H-quinazoline-2,4-dione]: the IC50 in assay [1] came to 17.9 nM; in assay [3] it was 40.1 nM. The compound also showed an EC50 in assay [2] of 92.8 nM.

Take `C[C@H]1CCN1c1nc2c(c(-c3ccc4c(c3)C3C(C4)C3C(=O)O)n1)CCC2` (stereo partly drawn) [Example 428, 3-[2-[(2S)-2-methylazetidin-1-yl]-6,7-dihydro-5H-cyclopenta[d]pyrimidin-4-yl]-1,1a,6,6a-tetrahydrocyclopropa[a]indene-1-carboxylic acid]: the IC50 in assay [1] is 38.4 nM; in assay [3] it was 41.3 nM. The compound further displayed an EC50 in assay [2] of 387 nM.

Turning to `C[C@H]1CCN1c1nc2c(c(-c3ccc4c(=O)[nH][nH]c(=O)c4c3)n1)CCC2` [Example 429, 6-[2-[(2S)-2-methylazetidin-1-yl]-6,7-dihydro-5H-cyclopenta[d]pyrimidin-4-yl]-2,3-dihydrophthalazine-1,4-dione], the IC50 was found to be 48.6 nM in assay [1] and 41.6 nM in assay [3]. The compound also gave an EC50 in assay [2] of 1730 nM.

Turning to `NC(=O)c1ccc(-c2nc(N3CCC34CCC4)nc3c2CCC3)cc1` [Example 430, 4-[2-(1-azaspiro[3.3]heptan-1-yl)-6,7-dihydro-5H-cyclopenta[d]pyrimidin-4-yl]benzamide], the values for the IC50 in assay [1] and in assay [3] were 3160 nM and 2120 nM, respectively. A half-maximal response in assay [2] (EC50) required 3220 nM.

With `NC(=O)c1ccc(-c2nc(N3CC(O)[C@@H]3Cc3ccccc3)nc3c2CCC3)cc1` (stereo partly drawn) [Example 431, 4-[2-[(2S)-2-benzyl-3-hydroxy-azetidin-1-yl]-6,7-dihydro-5H-cyclopenta[d]pyrimidin-4-yl]benzamide], the IC50 in assay [1] is 808 nM; in assay [3], 513 nM. Further, the EC50 in assay [2] is 711 nM.

Consider `C[C@H]1CCN1c1nc2c(c(-c3cccc4c3CC3C(C(=O)O)C43)n1)CCC2` (stereo partly drawn) [Example 432, 5-[2-[(2S)-2-methylazetidin-1-yl]-6,7-dihydro-5H-cyclopenta[d]pyrimidin-4-yl]-1,1a,6,6a-tetrahydrocyclopropa[a]indene-1-carboxylic acid], for which the IC50 in assay [1] is 323 nM; in assay [3], 360 nM. In assay [2], this compound displayed an EC50 of 2630 nM.

Turning to `NC(=O)c1ccc(-c2nc(N3CCC34CCOC4)nc3c2CCC3)cc1` (stereo not drawn) [Example 434, 4-[2-(7-oxa-1-azaspiro[3.4]octan-1-yl)-6,7-dihydro-5H-cyclopenta[d]pyrimidin-4-yl]benzamide], the results for the IC50 in assay [1] and in assay [3] were 2930 nM and 1620 nM, respectively. Further, a half-maximal response in assay [2] (EC50) required 3310 nM.

For the compound `C[C@H]1CCN1c1nc2c(c(-c3cccc(C4CC(C(=O)O)C4)c3)n1)CCC2` (stereo partly drawn) [Example 439, 3-[3-[2-[(2S)-2-methylazetidin-1-yl]-6,7-dihydro-5H-cyclopenta[d]pyrimidin-4-yl]phenyl]cyclobutanecarboxylic acid], the IC50 in assay [1] came out at 15.4 nM; in assay [3] it was 13.1 nM. The EC50 in assay [2] stood at 124 nM.

Regarding `C[C@H]1CCN1c1nc2c(c(-c3ccnc(OC(F)F)c3)n1)CCC2` [Example 453, 4-[2-(difluoromethoxy)-4-pyridyl]-2-[(2S)-2-methylazetidin-1-yl]-6,7-dihydro-5H-cyclopenta[d]pyrimidine], the values for the IC50 in assay [1] and in assay [3] were 1010 nM and 776 nM, respectively. The EC50 in assay [2] is 1040 nM.

`C[C@H]1CCN1c1nc2c(c(-c3ccc(C4(C(=O)O)CC4)cc3)n1)CCC2` [Example 455, 1-[4-[2-[(2S)-2-methylazetidin-1-yl]-6,7-dihydro-5H-cyclopenta[d]pyrimidin-4-yl]phenyl]cyclopropanecarboxylic acid]: the IC50 was found to be 497 nM in assay [1] and 248 nM in assay [3]. Moreover, the EC50 in assay [2] was > 5000 nM.

`C[C@H]1[C@H](O)CN1c1nc(-c2ccc3c(c2)CCC32CCC(=O)N2)c2c(n1)C(F)(F)CC2` (stereo partly drawn) [Example 636, 5-(7,7-difluoro-2-((2S,3R)-3-hydroxy-2-methylazetidin-1-yl)-6,7-dihydro-5H-cyclopenta[d]pyrimidin-4-yl)-2,3-dihydrospiro[indene-1,2′-pyrrolidin]-5′-one]: the IC50 was 11.4 nM in assay [1] and 0.5 nM in assay [3]. In assay [2], this compound showed an EC50 of 13 nM.
